Like-named read-outs stand apart in the source and are kept apart here.
Molecular target: T1, estrogen receptor (Rattus norvegicus, UniProt P06211)
T1 construct: in rat uterine cytosol, which was obtained from ovariectomized uteri of Sprague-Dawley rats; from tissue; host or cells: uterine cytosol of ovariectomized Sprague-Dawley rats
T1 sequence (P06211 1-600): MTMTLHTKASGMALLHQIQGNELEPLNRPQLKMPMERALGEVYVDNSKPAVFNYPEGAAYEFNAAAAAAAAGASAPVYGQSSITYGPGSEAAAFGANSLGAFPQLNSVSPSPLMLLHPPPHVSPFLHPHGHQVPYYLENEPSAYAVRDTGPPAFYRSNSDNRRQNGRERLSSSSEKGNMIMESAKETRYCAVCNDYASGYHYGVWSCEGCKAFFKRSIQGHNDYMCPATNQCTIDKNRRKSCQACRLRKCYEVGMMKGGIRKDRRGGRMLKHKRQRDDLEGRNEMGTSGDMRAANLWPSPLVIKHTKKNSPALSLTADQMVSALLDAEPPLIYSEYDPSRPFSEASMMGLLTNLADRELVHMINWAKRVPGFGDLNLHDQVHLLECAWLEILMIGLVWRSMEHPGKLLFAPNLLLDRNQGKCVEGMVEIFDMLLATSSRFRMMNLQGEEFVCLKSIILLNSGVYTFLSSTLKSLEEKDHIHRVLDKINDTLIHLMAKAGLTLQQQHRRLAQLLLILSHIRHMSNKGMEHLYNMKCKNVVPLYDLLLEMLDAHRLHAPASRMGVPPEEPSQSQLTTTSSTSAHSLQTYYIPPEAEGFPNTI
Assay: Competitive ER binding assay with [3H]E2 in rat uterine cytosol (NCTR)
Source text: The log relative binding activity (RBA) data for these 130 structurally diverse compounds was used to train the CoSCoSA models. The data was produced at NCTR using a competitive ER binding assay with radiolabeled estradiol ([^3H]E2) in rat uterine cytosol, which was obtained from ovariectomized uteri of Sprague-Dawley rats. […] For each of the 130 compounds, the ^13C 2D ^13C—^13C COSY NMR experiment was simulated using the ACD Labs CNMR version 5.0 2D predictor software. The COSY NMR spectra could be saved as two tables per compound.

[1] = relative binding affinity vs 17-β-estradiol (RBA 100), rat uterine cytosol, 130 compound training set

Compound | Exp. Log(RBA) [1] | Exp. Log(RBA)
4-ethyl-7-OH-(p-meoxyphenol)-dihydro-1-benzopyran-2-one | −0.05 | 
4-hydroxytamoxifen |  | 2.24
C[C@]12CC[C@@H]3c4ccc(O)cc4[C@@H](O)C[C@H]3[C@@H]1CC[C@@H]2O [1,3,5-Estratrien-3,6α-17β-triol] | −0.15 | 
C[Si](C)(O[Si](C)(C)c1ccccc1)c1ccccc1 [1,3-diphenyltetramethyldisiloxane] |  | −3.16
O=C(C(=O)c1ccc(O)cc1O)c1ccc(O)cc1O [2,2′,4,4′-tetrahydroxybenzil] |  | −0.68
Oc1ccc(Cl)cc1Cc1cc(Cl)ccc1O [2,2′-methylenebis(4-chlorophenol)] |  | −2.45
Oc1ccc(-c2cc(Cl)c(Cl)c(Cl)c2Cl)cc1 [2,3,4,5-tetraCl-4′-biphenylol] | −0.64 | 
O=C(c1ccccc1)c1ccc(O)cc1O [2,4-dihyroxybenzophenone] | −2.61 | 
Clc1ccc(-c2ccccc2Cl)cc1 [2,4′-dichlorobiphenyl] |  | −3.61
Oc1ccc(-c2cc(Cl)ccc2Cl)cc1 [2,5-dichloro-4′-biphenylol] |  | −1.44
CCC(c1ccc(O)cc1)C(CC)c1c(C)cc(O)cc1C (centres unmarked) [2,6-dimethylhexestrol] | 1.11 | 
Oc1ccc(-c2ccccc2)c(Cl)c1 [2-Cl-4-biphenylol] | −2.77 | 
C[C@]12CC[C@@H]3c4cc(O)c(O)cc4CC[C@H]3[C@@H]1CC[C@@H]2O [2-hydroxyestradiol] |  | 1.47
O=C(/C=C/c1ccc(O)cc1)c1ccc(O)cc1O [2′,4,4′-trihydroxychalcone] |  | −1.26
Oc1c(Cl)cc(-c2cc(Cl)c(O)c(Cl)c2)cc1Cl [3,3′,5,5′-tetraCl-4,4′-biphenyldiol] | −3.25 | 
CCC(c1ccc(O)c(O)c1)C(CC)c1ccc(O)c(O)c1 (centres unmarked) [3,3′-dihydroxyhestrol] | 1.19 | 
O=c1c(O)c(-c2ccc(O)cc2)oc2ccc(O)cc12 [3,6,4′-trihydroxyflavone] | −0.35 | 
C[C@]12CC[C@@H]3c4ccccc4CC[C@H]3[C@@H]1CC[C@@H]2O [3-deoxyestradiol] | −0.3 | 
C[C@]12CC[C@@H]3c4ccccc4CC[C@H]3[C@@H]1CCC2=O [3-deoxyestrone] | −2.2 | 
CCc1cccc(O)c1 [3-ethylphenol] | −3.87 | 
COc1ccc2c(c1)CC[C@@H]1[C@@H]2CC[C@]2(C)[C@@H](O)[C@H](O)C[C@@H]12 [3-methylestriol] | −1.65 | 
Oc1cccc(-c2ccccc2)c1 [3-phenylphenol] |  | −3.44
C[C@]12CC[C@@H](O)C[C@@H]1CC[C@@H]1[C@@H]2CC[C@]2(C)[C@@H](O)CC[C@@H]12 [3α-androstanediol] |  | −2.67

Compound | Exp. Log(RBA) [1] | Exp. Log(RBA)
C[C@]12CC[C@H](O)C[C@@H]1CC[C@@H]1[C@@H]2CC[C@]2(C)[C@@H](O)CC[C@@H]12 [3β-androstanediol] |  | −0.92
O=c1c(-c2ccc(O)c(O)c2)coc2cc(O)ccc12 [3′,4′,7-trihydroxyisoflavone] | −2.35 | 
O=C1CC(c2cccc(O)c2)Oc2ccccc21 (centres unmarked) [3′-OH-flavanone] | −2.78 | 
Oc1ccc(CCc2ccc(O)cc2)cc1 [4,4′-(1,2-ethanediyl)bisphenol] | −1.44 | 
Oc1ccc(C=Cc2ccc(O)cc2)cc1 [4,4′-dihroxystilbene] | −0.55 | 
O=C(c1ccc(O)cc1)c1ccc(O)cc1 [4,4′-dihydroxybenzophenone] | −2.46 | 
O=S(=O)(c1ccc(O)cc1)c1ccc(O)cc1 [4,4′-sulfonyldiphenol] |  | −3.07
O=c1cc(-c2ccc(O)cc2)oc2ccc(O)cc12 [4,6-dihydroxyflavone] | −0.82 | 
Cc1cc(O)ccc1Cl [4-Cl-3-methylphenol] | −3.38 | 
Oc1ccc(-c2ccc(Cl)cc2)cc1 [4-Cl-4′-biphenylol] | −2.18 | 
O=C(/C=C/c1ccc(O)cc1)c1ccccc1 [4-OH-chalcone] | −2.43 | 
Oc1ccc(OCc2ccccc2)cc1 [4-benzyloxyphenol] |  | −3.44
CCCCCCCCCCCCc1ccc(O)cc1 [4-dodecylphenol] |  | −1.73
CCCCCCCOc1ccc(O)cc1 [4-heptyloxyphenol] | −2.88 | 
C[C@]12CC[C@@H]3c4ccc(O)c(O)c4CC[C@H]3[C@@H]1CC[C@@H]2O [4-hydroxyestradiol] |  | 2.24
CCCCCCCCCc1ccc(O)cc1 [4-nonylphenol] |  | −1.53
Oc1ccc(CCc2ccccc2)cc1 [4-phenethylphenol] | −2.69 | 
CCC(C)(C)c1ccc(O)cc1 [4-tert-amylphenol] |  | −3.26
CC(C)(C)c1ccc(O)cc1 [4-tert-butylphenol] |  | −3.61
O=C(/C=C/c1ccccc1)c1ccc(O)cc1 [4′-OH-chalcone] | −2.43 | 
O=C1CC(c2ccc(O)cc2)Oc2ccccc21 (centres unmarked) [4′-hydroxyflavanone] | −2.65 | 
O=C1CC(c2ccccc2)Oc2ccc(O)cc21 (centres unmarked) [6-hydroxyflavanone] | −3.05 | 
O=c1cc(-c2ccccc2)oc2ccc(O)cc12 [6-hydroxyflavone] | −3.41 | 

Compound | Exp. Log(RBA) [1] | Exp. Log(RBA)
C[C@@]12CCC[C@H]1[C@@H]1CCc3cc(O)ccc3[C@H]1CC2 [17-deoxyestradiol] | 1.14 | 
CCCCN(C)C(=O)CCCCCCCCCC[C@@H]1Cc2cc(O)ccc2[C@H]2CC[C@]3(C)[C@@H](O)CC[C@H]3[C@H]12 [ICI164384] | 1.16 | 
C[C@]12CC[C@@H]3c4ccc(O)cc4C[C@@H](CCCCCCCCC[S+]([O-])CCCC(F)(F)C(F)(F)F)[C@H]3[C@@H]1CC[C@@H]2O (some centres unmarked) [ICI182780] |  | 1.57
O=C1C=CC(=C(c2ccc(O)cc2)c2ccc(O)cc2)C=C1 [aurin] |  | −1.5
O=c1cc(-c2ccccc2)oc2cc(O)c(O)c(O)c12 [baicalein] |  | −3.35
O=C(OCc1ccccc1)c1ccc(O)cc1 [benzyl-4-hydroxybenzoate] | −2.54 | 
COc1ccc(-c2coc3cc(O)cc(O)c3c2=O)cc1 [biochanin A] | −2.37 | 
Oc1ccc(Cc2ccc(O)cc2)cc1 [bis-(4-hydroxyphenyl)methane] |  | −3.02
CC(C)(c1ccc(O)cc1)c1ccc(O)cc1 [bisphenol A] | −2.11 | 
CCC(C)(c1ccc(O)cc1)c1ccc(O)cc1 [bisphenol B] |  | −1.07
O=C(/C=C/c1ccccc1)c1ccccc1 [chalcone] |  | −2.82
O=c1c(-c2ccc(O)cc2)coc2cc(O)ccc12 [daidzein] |  | −1.65
C/C=C(/C(=C/C)c1ccc(O)cc1)c1ccc(O)cc1 [dienestrol] |  | 1.57
CC/C(=C(/CC)c1ccc(OC)cc1)c1ccc(OC)cc1 [dietheylstilbestrol dimethyl ether] | −1.25 | 
CC/C(=C(/CC)c1ccc(OC)cc1)c1ccc(O)cc1 [diethylstilbestrol monomethyl ether] | 1.31 | 
COc1cc(C(=C(Cl)Cl)c2ccc(O)cc2)ccc1O [dihydroxymethoxychlorolefin] |  | 0.42
C/C(=C(/C)c1ccc(O)cc1)c1ccc(O)cc1 [dimethylstibestrol] | 1.16 | 
CC(CCC(=O)O)(c1ccc(O)cc1)c1ccc(O)cc1 [diphenolic acid] |  | −3.13
CC[C@H]1c2ccc3cc(OC)ccc3c2CC[C@@]1(C)C(=O)O [doisynoestrol] | −2.74 | 
CC/C(=C(/c1ccc(OCCN(C)C)cc1)c1cccc(O)c1)c1ccccc1 [droloxifene] |  | 1.18
Oc1ccc([C@H]2COc3cc(O)ccc3C2)cc1 [equol] |  | −0.82
CCOC(=O)c1ccc(O)cc1 [ethyl-4-hydrobenzoate] | −3.22 | 

From patent US7996156B2, “Methods for predicting properties of molecules” (priority 2002, dated 2011)
